Test results from ChEMBL document CHEMBL1201861, “Genomics of Drug Sensitity in Cancer screening data, Wellcome Trust Sanger Institute”.

Columns and labels:
Assay in all cases: cells
[1] = test system: SNU-5; type: functional, cell-based, Homo sapiens; details: Homo sapiens, SNU-5;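 note: cell viability readout used to measure growth inhibition in human NCI-SNU-5 cells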
Description: SANGER: Inhibition of human NCI-SNU-5 cell growth in a cell viability assay.

[2] = test system: NCI-H1770; type: functional, cell-based, Homo sapiens; details: Homo sapiens, NCI-H1770;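 note: growth inhibition of NCI-H1770 cells determined with a viability readout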
Description: SANGER: Inhibition of human NCI-H1770 cell growth in a cell viability assay.

[3] = test system: ES4; type: functional, cell-based, Homo sapiens; details: Homo sapiens, ES4;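 note: growth inhibition of human ES4 cells, read out by a cell viability assay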
Description: SANGER: Inhibition of human ES4 cell growth in a cell viability assay.

[4] = test system: SK-PN-DW; type: functional, cell-based, Homo sapiens; details: Homo sapiens, SK-PN-DW;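 note: growth inhibition measured with a viability assay on these cells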
Description: SANGER: Inhibition of human SK-PN-DW cell growth in a cell viability assay.

[5] = test system: Calu-6; type: functional, cell-based, Homo sapiens; details: Homo sapiens, Calu-6;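 note: growth of human Calu-6 cells, read out by a cell viability assay, IC50 marking inhibition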
Description: SANGER: Inhibition of human Calu-6 cell growth in a cell viability assay.

[6] = test system: COLO-800; type: functional, cell-based, Homo sapiens; details: Homo sapiens, COLO-800;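 note: growth inhibition of COLO-800 cells, read out with a cell viability assay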
Description: SANGER: Inhibition of human COLO-800 cell growth in a cell viability assay.

[7] = test system: SK-LMS-1; type: functional, cell-based, Homo sapiens; details: Homo sapiens, SK-LMS-1;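 note: growth inhibition of human SK-LMS-1 cells, read out with a cell viability assay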
Description: SANGER: Inhibition of human SK-LMS-1 cell growth in a cell viability assay.

[8] = test system: NCI-H82; type: functional, cell-based, Homo sapiens; details: Homo sapiens, NCI-H82;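 note: growth inhibition of NCI-H82 cells, measured with a cell viability readout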
Description: SANGER: Inhibition of human NCI-H82 cell growth in a cell viability assay.

[9] = test system: D-247MG; type: functional, cell-based; details: Homo sapiens
Description: SANGER: Inhibition of human D-247MG cell growth in a cell viability assay.

[10] = test system: TE-11; type: functional, cell-based; details: Homo sapiens;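 note: growth inhibition of human TE-11 cells, read out by a cell viability assay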
Description: SANGER: Inhibition of human TE-11 cell growth in a cell viability assay.

[11] = test system: EKVX; type: functional, cell-based, Homo sapiens; details: Homo sapiens, EKVX;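 note: growth inhibition of human EKVX cells, read out with a cell viability assay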
Description: SANGER: Inhibition of human EKVX cell growth in a cell viability assay.

[12] = test system: TE-8; type: functional, cell-based, Homo sapiens; details: Homo sapiens, TE-8;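 note: growth inhibition of TE-8 cells, measured with a cell viability readout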
Description: SANGER: Inhibition of human TE-8 cell growth in a cell viability assay.

[13] = test system: A3-KAW; type: functional, cell-based, Homo sapiens; details: Homo sapiens, A3-KAW;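 note: growth inhibition of human A3-KAW cells, read out with a cell viability assay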
Description: SANGER: Inhibition of human A3-KAW cell growth in a cell viability assay.

[14] = test system: RXF 393; type: functional, cell-based, Homo sapiens; details: Homo sapiens, RXF 393;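 note: growth inhibition of human RXF 393 cells, read out with a cell viability assay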
Description: SANGER: Inhibition of human RXF393 cell growth in a cell viability assay.

[15] = test system: ES6; type: functional, cell-based; details: Homo sapiens;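 note: growth inhibition of human ES6 cells, read out with a cell viability assay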
Description: SANGER: Inhibition of human ES6 cell growth in a cell viability assay.

[16] = test system: MOLT-4; type: functional, cell-based, Homo sapiens; details: Homo sapiens, MOLT-4;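 note: growth inhibition of MOLT-4 cells, determined with a cell viability readout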
Description: SANGER: Inhibition of human MOLT-4 cell growth in a cell viability assay.

[17] = test system: LS-513; type: functional, cell-based, Homo sapiens; details: Homo sapiens, LS-513
Description: SANGER: Inhibition of human LS-513 cell growth in a cell viability assay.

[18] = test system: TE-12; type: functional, cell-based, Homo sapiens; details: Homo sapiens, TE-12;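 note: growth inhibition of TE-12 cells, read out by a cell viability assay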
Description: SANGER: Inhibition of human TE-12 cell growth in a cell viability assay.

[19] = test system: SF-539; type: functional, cell-based, Homo sapiens; details: Homo sapiens, SF-539;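 note: Read-out is a cell viability assay, with IC50 reflecting inhibition of cell growth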
Description: SANGER: Inhibition of human SF539 cell growth in a cell viability assay.

[20] = test system: Lu-65; type: functional, cell-based, Homo sapiens; details: Homo sapiens, Lu-65;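 note: growth inhibition of Lu-65 cancer cells, read out by a cell viability assay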
Description: SANGER: Inhibition of human LU-65 cell growth in a cell viability assay.

[21] = test system: NTERA-2-cl-D1; type: functional, cell-based, Homo sapiens; details: Homo sapiens, NTERA-2-cl-D1;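 note: inhibition of cell growth, measured with a cell viability assay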
Description: SANGER: Inhibition of human NTERA-S-cl-D1 cell growth in a cell viability assay.

[22] = test system: NCI-H2126; type: functional, cell-based, Homo sapiens; details: Homo sapiens, NCI-H2126;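 note: growth inhibition of the cancer cell line, determined with a cell viability readout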
Description: SANGER: Inhibition of human NCI-H2126 cell growth in a cell viability assay.

[23] = test system: TE-5; type: functional, cell-based, Homo sapiens; details: Homo sapiens, TE-5;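 note: inhibition of cell growth, read out by a cell viability assay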
Description: SANGER: Inhibition of human TE-5 cell growth in a cell viability assay.

[24] = test system: SCH; type: functional, cell-based, Homo sapiens; details: Homo sapiens, SCH;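 note: growth inhibition of human SCH cells, read out in a cell viability assay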
Description: SANGER: Inhibition of human SCH cell growth in a cell viability assay.

[25] = test system: LB831-BLC; type: functional, cell-based, Homo sapiens; details: Homo sapiens, LB831-BLC;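 note: growth inhibition of LB831-BLC cells, read out with a cell viability assay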
Description: SANGER: Inhibition of human LB831-BLC cell growth in a cell viability assay.

[26] = test system: DOHH-2; type: functional, cell-based, Homo sapiens; details: Homo sapiens, DOHH-2;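 note: growth inhibition of human DOHH-2 cells, read out with a cell viability assay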
Description: SANGER: Inhibition of human DOHH-2 cell growth in a cell viability assay.

[27] = test system: EM-2; type: functional, cell-based, Homo sapiens; details: Homo sapiens, EM-2;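 note: growth inhibition of EM-2 cells, read out with a cell viability assay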
Description: SANGER: Inhibition of human EM-2 cell growth in a cell viability assay.

[28] = test system: NCI-H23; type: functional, cell-based, Homo sapiens; details: Homo sapiens, NCI-H23;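 note: cell viability assay measuring growth inhibition of NCI-H23 cells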
Description: SANGER: Inhibition of human NCI-H23 cell growth in a cell viability assay.

[29] = test system: MC116; type: functional, cell-based, Homo sapiens; details: Homo sapiens, MC116;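 note: growth inhibition of MC116 cells, read out with a cell viability assay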
Description: SANGER: Inhibition of human MC116 cell growth in a cell viability assay.

[30] = test system: P30-OHK; type: functional, cell-based, Homo sapiens; details: Homo sapiens, P30-OHK;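 note: growth inhibition of the P30-OHK cell line, read out with a cell viability assay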
Description: SANGER: Inhibition of human P30-OHK cell growth in a cell viability assay.

[31] = test system: HCC1187; type: functional, cell-based, Homo sapiens; details: Homo sapiens, HCC1187;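 note: growth inhibition of HCC1187 cells, read out with a cell viability assay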
Description: SANGER: Inhibition of human HCC1187 cell growth in a cell viability assay.

[32] = test system: JVM-2; type: functional, cell-based, Homo sapiens; details: Homo sapiens, JVM-2;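 note: growth inhibition of JVM-2 cells determined by a cell viability assay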
Description: SANGER: Inhibition of human JVM-2 cell growth in a cell viability assay.

[33] = test system: NCI-H747; type: functional, cell-based, Homo sapiens; details: Homo sapiens, NCI-H747;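 note: growth inhibition of human NCI-H747 cells, read out by a cell viability assay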
Description: SANGER: Inhibition of human NCI-H747 cell growth in a cell viability assay.

[34] = test system: ES5; type: functional, cell-based, Homo sapiens; details: Homo sapiens, ES5;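 note: growth inhibition of human ES5 cells, read out by a cell viability assay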
Description: SANGER: Inhibition of human ES5 cell growth in a cell viability assay.

[35] = test system: KARPAS-299; type: functional, cell-based, Homo sapiens; details: Homo sapiens, KARPAS-299
Description: SANGER: Inhibition of human KARPAS-299 cell growth in a cell viability assay.

[36] = test system: HT-144; type: functional, cell-based, Homo sapiens; details: Homo sapiens, HT-144
Description: SANGER: Inhibition of human HT-144 cell growth in a cell viability assay.

[37] = test system: GCIY; type: functional, cell-based, Homo sapiens; details: Homo sapiens, GCIY;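 note: growth inhibition of the human GCIY cell line, read out by a cell viability assay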
Description: SANGER: Inhibition of human GCIY cell growth in a cell viability assay.

[38] = test system: ACN; type: functional, cell-based, Homo sapiens; details: Homo sapiens, ACN;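 note: growth inhibition of the human ACN cell line, read out via cell viability testing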
Description: SANGER: Inhibition of human ACN cell growth in a cell viability assay.

[39] = test system: COLO-824; type: functional, cell-based, Homo sapiens; details: Homo sapiens, COLO-824
Description: SANGER: Inhibition of human COLO-824 cell growth in a cell viability assay.

[40] = test system: CW-2; type: functional, cell-based, Homo sapiens; details: Homo sapiens, CW-2;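 note: growth inhibition of CW-2 cells, read out by a cell viability assay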
Description: SANGER: Inhibition of human CW-2 cell growth in a cell viability assay.

[41] = test system: QIMR-WIL; type: functional, cell-based, Homo sapiens; details: Homo sapiens, QIMR-WIL;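 note: growth inhibition of QIMR-WIL cells, read out with a cell viability assay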
Description: SANGER: Inhibition of human QIMR-WIL cell growth in a cell viability assay.

[42] = test system: DU-4475; type: functional, cell-based, Homo sapiens; details: Homo sapiens, DU-4475
Description: SANGER: Inhibition of human DU-4475 cell growth in a cell viability assay.

[43] = test system: TE-10; type: functional, cell-based, Homo sapiens; details: Homo sapiens, TE-10;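 note: growth inhibition of TE-10 cells, measured by a cell viability assay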
Description: SANGER: Inhibition of human TE-10 cell growth in a cell viability assay.

[44] = test system: HCC2157; type: functional, cell-based, Homo sapiens; details: Homo sapiens, HCC2157;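 note: growth inhibition of the cancer cell line, read out as cell viability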
Description: SANGER: Inhibition of human HCC2157 cell growth in a cell viability assay.

[45] = test system: HDLM-2; type: functional, cell-based, Homo sapiens; details: Homo sapiens, HDLM-2;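 note: cell viability assay measuring suppression of HDLM-2 proliferation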
Description: SANGER: Inhibition of human HDLM-2 cell growth in a cell viability assay.

[46] = test system: MZ1-PC; type: functional, cell-based, Homo sapiens; details: Homo sapiens, MZ1-PC;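 note: cell viability assay measuring growth inhibition of human MZ1-PC cells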
Description: SANGER: Inhibition of human MZ1-PC cell growth in a cell viability assay.

[47] = test system: SNB-75; type: functional, cell-based, Homo sapiens; details: Homo sapiens, SNB-75;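 note: cell viability assay measuring growth inhibition of human SNB-75 cells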
Description: SANGER: Inhibition of human SNB75 cell growth in a cell viability assay.

[48] = test system: BB30-HNC; type: functional, cell-based, Homo sapiens; details: Homo sapiens, BB30-HNC;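 note: growth inhibition of the cultured cell line, read out by a cell viability assay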
Description: SANGER: Inhibition of human BB30-HNC cell growth in a cell viability assay.

[49] = test system: NB10; type: functional, cell-based, Homo sapiens; details: Homo sapiens, NB10;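 note: growth inhibition of NB10 cells, read out by a cell viability assay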
Description: SANGER: Inhibition of human NB10 cell growth in a cell viability assay.

[50] = test system: LS-123; type: functional, cell-based, Homo sapiens; details: Homo sapiens, LS-123
Description: SANGER: Inhibition of human LS-123 cell growth in a cell viability assay.

Compound: C=CC(=O)N1CCCC(Nc2nc(Nc3ccc(N(C)C(=O)CC)cc3)nc3[nH]cnc23)C1 (stereo not given)
- IC50 [1]: > 10.2 µM
- IC50 [2]: > 10.2 µM
- IC50 [3]: > 10.2 µM
- IC50 [4]: > 10.2 µM
- IC50 [5]: > 10.2 µM
- IC50 [6]: > 10.2 µM
- IC50 [7]: > 10.2 µM
- IC50 [8]: > 10.2 µM
- IC50 [9]: > 10.2 µM
- IC50 [10]: > 10.2 µM
- IC50 [11]: > 10.2 µM
- IC50 [12]: > 10.2 µM
- IC50 [13]: > 10.2 µM
- IC50 [14]: > 10.2 µM
- IC50 [15]: > 10.2 µM
- IC50 [16]: > 10.2 µM
- IC50 [17]: > 10.2 µM
- IC50 [18]: 2.35 µM
- IC50 [19]: > 10.2 µM
- IC50 [20]: > 10.2 µM
- IC50 [21]: > 10.2 µM
- IC50 [22]: > 10.2 µM
- IC50 [23]: > 10.2 µM
- IC50 [24]: > 10.2 µM
- IC50 [25]: 2.95 µM
- IC50 [26]: > 10.2 µM
- IC50 [27]: > 10.2 µM
- IC50 [28]: > 10.2 µM
- IC50 [29]: > 10.2 µM
- IC50 [30]: > 10.2 µM
- IC50 [31]: > 10.2 µM
- IC50 [32]: > 10.2 µM
- IC50 [33]: > 10.2 µM
- IC50 [34]: > 10.2 µM
- IC50 [35]: > 10.2 µM
- IC50 [36]: > 10.2 µM
- IC50 [37]: > 10.2 µM
- IC50 [38]: > 10.2 µM
- IC50 [39]: > 10.2 µM
- IC50 [40]: > 10.2 µM
- IC50 [41]: > 10.2 µM
- IC50 [42]: > 10.2 µM
- IC50 [43]: > 10.2 µM
- IC50 [44]: > 10.2 µM
- IC50 [45]: > 10.2 µM
- IC50 [46]: 7.94 µM
- IC50 [47]: > 10.2 µM
- IC50 [48]: 3.41 µM
- IC50 [49]: > 10.2 µM
- IC50 [50]: > 10.2 µM

Compound: Cc1cc(N2CCOCC2)cc2[nH]c(-c3c(NC[C@@H](O)c4cccc(Cl)c4)cc[nH]c3=O)nc12
- IC50 [1]: > 5.12 µM
- IC50 [2]: > 5.12 µM
- IC50 [3]: 0.622 µM
- IC50 [4]: 3.43 µM
- IC50 [5]: > 5.12 µM
- IC50 [6]: > 5.12 µM
- IC50 [7]: 4.81 µM
- IC50 [8]: > 5.12 µM
- IC50 [9]: > 5.12 µM
- IC50 [10]: 0.152 µM
- IC50 [11]: 2.51 µM
- IC50 [12]: 0.506 µM
- IC50 [13]: 1.93 µM
- IC50 [14]: 1.3 µM
- IC50 [15]: 0.425 µM
- IC50 [16]: 4.58 µM
- IC50 [17]: 4.17 µM
- IC50 [18]: 0.176 µM
- IC50 [19]: > 5.12 µM
- IC50 [20]: 4.5 µM
- IC50 [21]: 0.257 µM
- IC50 [22]: 3.98 µM
- IC50 [23]: > 5.12 µM
- IC50 [24]: > 5.12 µM
- IC50 [25]: 1.5 µM
- IC50 [26]: > 5.12 µM
- IC50 [27]: > 5.12 µM
- IC50 [28]: > 5.12 µM
- IC50 [29]: > 5.12 µM
- IC50 [30]: > 5.12 µM
- IC50 [31]: > 5.12 µM
- IC50 [32]: > 5.12 µM
- IC50 [33]: 0.68 µM
- IC50 [34]: > 5.12 µM
- IC50 [35]: 3.85 µM
- IC50 [36]: 1.82 µM
- IC50 [37]: 0.404 µM
- IC50 [38]: 1.98 µM
- IC50 [39]: > 5.12 µM
- IC50 [40]: > 5.12 µM
- IC50 [41]: > 5.12 µM
- IC50 [42]: > 5.12 µM
- IC50 [43]: 1.2 µM
- IC50 [44]: > 5.12 µM
- IC50 [45]: > 5.12 µM
- IC50 [46]: 0.764 µM
- IC50 [47]: 3.43 µM
- IC50 [48]: 1.12 µM
- IC50 [49]: > 5.12 µM
- IC50 [50]: > 5.12 µM

Compound: Cc1ccc(-n2nc(C(C)(C)C)cc2NC(=O)Nc2ccc(OCCN3CCOCC3)c3ccccc23)cc1 [DORAMAPIMOD]
- IC50 [1]: > 10 µM
- IC50 [2]: > 10 µM
- IC50 [3]: > 10 µM
- IC50 [4]: > 10 µM
- IC50 [5]: > 10 µM
- IC50 [6]: > 10 µM
- IC50 [7]: > 10 µM
- IC50 [8]: > 10 µM
- IC50 [9]: > 10 µM
- IC50 [10]: > 10 µM
- IC50 [11]: > 10 µM
- IC50 [12]: > 10 µM
- IC50 [13]: > 10 µM
- IC50 [14]: > 10 µM
- IC50 [15]: > 10 µM
- IC50 [16]: > 10 µM
- IC50 [17]: > 10 µM
- IC50 [18]: > 10 µM
- IC50 [19]: > 10 µM
- IC50 [20]: > 10 µM
- IC50 [21]: > 10 µM
- IC50 [22]: > 10 µM
- IC50 [23]: > 10 µM
- IC50 [24]: > 10 µM
- IC50 [25]: > 10 µM
- IC50 [26]: > 10 µM
- IC50 [27]: > 10 µM
- IC50 [28]: > 10 µM
- IC50 [29]: > 10 µM
- IC50 [30]: > 10 µM
- IC50 [31]: > 10 µM
- IC50 [32]: > 10 µM
- IC50 [33]: > 10 µM
- IC50 [34]: > 10 µM
- IC50 [35]: > 10 µM
- IC50 [36]: > 10 µM
- IC50 [37]: > 10 µM
- IC50 [38]: > 10 µM
- IC50 [39]: > 10 µM
- IC50 [40]: > 10 µM
- IC50 [41]: > 10 µM
- IC50 [42]: > 10 µM
- IC50 [43]: > 10 µM
- IC50 [44]: > 10 µM
- IC50 [45]: > 10 µM
- IC50 [46]: > 10 µM
- IC50 [47]: > 10 µM
- IC50 [48]: > 10 µM
- IC50 [49]: > 10 µM
- IC50 [50]: > 10 µM
